Literature values as cited in article PMC2891520 (The Journal of neuroscience : the official journal of the …, 2010).

Molecular target: CaMKII (Homo sapiens, UniProt Q9UQM7)
Details: ref Vest et al., 2010

For COc1ccc(S(=O)(=O)N(CCO)c2ccccc2CN(C)C/C=C/c2ccc(Cl)cc2)cc1 [KN93], the “block of autonomous CaMKII activity once generated” value is listed as “does not block autonomous activity once it is generated”.
